Results on 57 compounds are retold here after patent publication US20100267712A1, “ISOINDOLINE COMPOUNDS FOR THE TREATMENT OF SPINAL MUSCULAR ATROPHY AND OTHER USES” (The United States of America, as represented by the …, priority 2007, published 2010).

This experiment concerns SMN2-linked luciferase-reporter gene construct. In words: SMN Splice Reporter Assay (SMN2-linked luciferase reporter). The class given is cell-based. Particulars: for EC50: cervical carcinoma cell lines, SMN2 splice luciferase reporter; for Fold Increase: fold-increase of luciferase over baseline reading of transformed cells without any test compound. The source says: As previously discussed, SMN1 is the gene deleted in SMA patients; the SMN2 gene remains intact in both SMA and normal patients. Therefore, SMN2 provides a potential means of increasing SMN production in SMA patients and is, thus, a target for developing SMA treatments. SMN2 is identical to SMN1 with the exception of a single base pair change that results in reduced expression of the gene. The reduction is based on the creation of an alternatively spliced RNA that produces an unstable protein carrying a deletion of exon 7. Both full length SMN and exon 7 deleted SMN are produced by the SMN2 gene via alternative RNA splicing, but the major product is the unstable deleted form.
Cervical carcinoma cell lines were transformed with a SMN2-linked luciferase-reporter gene construct. The reporter is designed to detect shifts in the alternative splicing of SMN2 sequences. In particular, the reporter is constructed as a fusion of the alternatively spliced sequences of the SMN2 gene and the luciferase gene. Luciferase sequences are in the correct translational reading frame only when the SMN2 sequences are spliced according to the normal SMN1 mechanism (e.g., splicing to include exon 7), which allows for translation of the stable SMN protein. Compounds were tested in the assay by administering the compound to the cell line and detecting an increase in the luciferase activity. The assay is described in greater detail in Zhang et al., Gene Ther., 8: 1532-8 (2001). Compounds were administered as described in Lunn et al, Chem. & Biol, 11: 1489-1493 (2004).
The results are reported as a fold-increase over a baseline reading of transformed cells without any test compound. The EC50 value also is reported in Table 1 for some exemplary compounds of the invention.

Regarding `O=C1c2ccccc2CN1c1ccc(Br)cn1` [Example 112648], a half-maximal response (EC50) required 456 nM and the “Fold Increase” value came out at 1.264.

For `O=C1c2ccccc2CN1c1ccc(Br)nc1` [Example 112649], the response was half-maximal at 18200 nM (EC50) and the “Fold Increase” value came out at 1.373.

Consider `CC(C)(C)OC(=O)Cc1ccc(N2Cc3ccccc3C2=O)nc1` [Example 112719], for which the half-maximal effective concentration (EC50) is 6580 nM and the “Fold Increase” value was found to be 1.324.

With `COC(=O)C1CCc2cc(N3Cc4ccccc4C3=O)ccc21` (stereo not drawn) [Example 113487], the response was half-maximal at 143 nM (EC50) and the “Fold Increase” value was found to be 1.259.

Regarding `O=C(O)C1CCc2cc(N3Cc4ccccc4C3=O)ccc21` (stereo not drawn) [Example 113488], the “Fold Increase” value amounted to 1.24.

Take `O=C1c2ccccc2CN1c1ccc2c(c1)CCC2` [Example 116070]: the EC50 stood at 67 nM and the “Fold Increase” value was 1.445.

`O=C1c2ccccc2CN1c1ccc2c(c1)OCO2` [Example 116238]: the EC50 came out at 2450 nM and the “Fold Increase” value came to 1.235.

Consider `COc1ccc2c(c1)C(=O)N(c1ccc3c(c1)CCC3)C2` [Example 116241], for which the EC50 was 98 nM and the “Fold Increase” value amounted to 1.512.

In the case of `COc1ccc2c(c1)C(=O)N(c1ccc3c(c1)OCO3)C2` [Example 116360], the “Fold Increase” value was 1.282.

For `O=C1c2ccccc2CN1c1ccc2c(c1)OC(F)(F)O2` [Example 116485], a half-maximal response (EC50) required 2240 nM and the “Fold Increase” value amounted to 1.202.

With `COc1ccc2c(c1)C(=O)N(c1ccc3c(c1)OC(F)(F)O3)C2` [Example 116565], the EC50 was 519 nM and the “Fold Increase” value is recorded as 1.3.

As for `Cc1ccc(N2Cc3cc4c(cc3C2=O)OCCO4)nc1` [Example 118418], the half-maximal effective concentration (EC50) was 63 nM and the “Fold Increase” value is recorded as 1.496.

Take `COc1ccc2c(c1)C(=O)N(c1ccc(C)cn1)C2` [Example 118553]: a half-maximal effect (EC50) was put at 166 nM and the “Fold Increase” value turned out to be 1.308.

As for `Cc1ccc(N2Cc3cc4c(cc3C2=O)OCCO4)cn1` [Example 118554], the EC50 was 708 nM and the “Fold Increase” value stood at 1.364.

As to `COc1ccc2c(c1)C(=O)N(c1ccc3ccn(C)c3c1)C2` [Example 118561], the EC50 was 143 nM and the “Fold Increase” value amounted to 1.74.

For the compound `COc1ccc2c(c1)C(=O)N(c1ccc(C)nc1)C2` [Example 118735], the “Fold Increase” value is 1.149.

Turning to `O=C1c2cc3c(cc2CN1c1ccc(Br)cn1)OCCO3` [Example 118736], the EC50 is 137 nM and the “Fold Increase” value is recorded as 1.413.

With `COc1ccc2c(c1)C(=O)N(c1ccc(Br)cn1)C2` [Example 118737], the 50% effective concentration (EC50) stood at 415 nM and the “Fold Increase” value came out at 1.358.

`O=C1c2cc3c(cc2CN1c1ccc2sccc2c1)OCCO3` [Example 118900]: the midpoint of the response, the EC50, lay at 66 nM and the “Fold Increase” value is 1.399.

`Cn1ccc2ccc(N3Cc4cc5c(cc4C3=O)OCCO5)cc21` [Example 118902]: the EC50 is 29 nM and the “Fold Increase” value amounted to 1.774.

With `O=C1c2cc3c(cc2CN1c1ccc2ccoc2c1)OCCO3` [Example 118903], the 50% effective concentration (EC50) was 6 nM and the “Fold Increase” value was 1.458.

As for `O=C1c2cc(OC(F)F)ccc2CN1c1ccc2c(c1)CCC2` [Example 119337], the EC50 turned out to be 157 nM and the “Fold Increase” value is reported as 1.66.

Take `COc1ccc2c(c1)C(=O)N(c1ccc3c(c1)NC(=O)CO3)C2` [Example 119516]: the “Fold Increase” value was 1.182.

As for `CCCn1ccc2cc(N3Cc4ccc(OC)cc4C3=O)ccc21` [Example 119517], the EC50 came out at 439 nM and the “Fold Increase” value is on record as 1.59.

Regarding `COc1ccc2c(c1)C(=O)N(c1ccc3sccc3c1)C2` [Example 119519], a half-maximal effect (EC50) was put at 31 nM and the “Fold Increase” value was determined as 1.666.

As to `CC=Cc1ccc2c(c1)C(=O)N(c1ccc3c(ccn3C)c1)C2` [Example 119520], it took 45 nM to reach a half-maximal effect (EC50) and the “Fold Increase” value stood at 1.54.

As to `COc1ccc2c(c1)C(=O)N(c1ccc(C(C)C)cn1)C2` [Example 119654], the EC50 came out at 235 nM and the “Fold Increase” value is listed as 1.44.

As for `COc1ccc2c(c1)C(=O)N(c1ccc(C(C)C)nc1)C2` [Example 119655], the EC50 stood at 491 nM and the “Fold Increase” value is given as 1.372.

For `COc1ccc2c(c1)C(=O)N(c1ccc3c(c1)OCC(=O)N3)C2` [Example 119656], the midpoint of the response, the EC50, lay at 78 nM and the “Fold Increase” value was 1.375.

For the compound `COc1ccc2c(c1)C(=O)N(c1ccc3[nH]ccc3c1)C2` [Example 119657], the “Fold Increase” value is 1.21.

Regarding `CN(C)c1ccc2c(c1)C(=O)N(c1ccc3c(c1)CCN3C)C2` [Example 119660], the “Fold Increase” value came out at 1.074.

Consider `COc1cccc2c1CN(c1ccc3c(ccn3C)c1)C2=O` [Example 119865], for which the half-maximal effective concentration (EC50) worked out at 842 nM and the “Fold Increase” value is 1.444.

Turning to `COc1ccc2c(c1)C(=O)N(c1ccc3nc[nH]c3c1)C2` [Example 119866], the EC50 amounted to 421 nM and the “Fold Increase” value came to 1.313.

For `CCCn1ccc2ccc(N3Cc4ccc(OC)cc4C3=O)cc21` [Example 119868], the midpoint of the response, the EC50, lay at 2280 nM and the “Fold Increase” value came to 1.582.

On to `COc1ccc2c(c1)CN(c1ccc3ccn(C)c3c1)C2=O` [Example 119870], for which the EC50 was determined as 242 nM and the “Fold Increase” value is 1.83.

Consider `Cn1ccc2ccc(N3Cc4ccc(Br)cc4C3=O)cc21` [Example 120117], for which it took 829 nM to reach a half-maximal effect (EC50) and the “Fold Increase” value amounted to 1.519.

`Cn1ccc2ccc(N3Cc4cc(Br)ccc4C3=O)cc21` [Example 120118]: the EC50 was determined as 453 nM and the “Fold Increase” value was 1.893.

Take `Cn1ccc2cc(N3Cc4c(N)cccc4C3=O)ccc21` [Example 120120]: the “Fold Increase” value is 1.094.

Regarding `COc1cccc2c1CN(c1ccc3ccn(C)c3c1)C2=O` [Example 120123], the EC50 was 1100 nM and the “Fold Increase” value amounted to 1.966.

In the case of `COc1cccc2c1C(=O)N(c1ccc3ccn(C)c3c1)C2` [Example 120124], the “Fold Increase” value came to 1.17.

Take `COc1cccc2c1C(=O)N(c1ccc3c(ccn3C)c1)C2` [Example 120125]: the midpoint of the response, the EC50, lay at 540 nM and the “Fold Increase” value amounted to 1.332.

Consider `Cc1cccc2c1C(=O)N(c1ccc3c(ccn3C)c1)C2` [Example 120278], for which the response was half-maximal at 161 nM (EC50) and the “Fold Increase” value is 1.502.

In the case of `Cc1cccc2c1C(=O)N(c1ccc3ccn(C)c3c1)C2` [Example 120279], it took 242 nM to reach a half-maximal effect (EC50) and the “Fold Increase” value is listed as 1.784.

Turning to `Cn1ccc2cc(N3Cc4cccc(Br)c4C3=O)ccc21` [Example 120280], it took 455 nM to reach a half-maximal effect (EC50) and the “Fold Increase” value was determined as 1.527.

Regarding `Cn1ccc2ccc(N3Cc4cccc(Br)c4C3=O)cc21` [Example 120281], a half-maximal effect (EC50) was put at 397 nM and the “Fold Increase” value worked out at 1.788.

As for `Cn1ccc2ccc(N3Cc4cccc([N+](=O)[O-])c4C3=O)cc21` [Example 120282], the EC50 amounted to 737 nM and the “Fold Increase” value worked out at 1.291.

Take `COc1ccc2c(c1)C(=O)N(c1ccc3ccn(C(C)C)c3c1)C2` [Example 120283]: the “Fold Increase” value is 1.273.

Turning to `COCCn1ccc2ccc(N3Cc4ccc(OC)cc4C3=O)cc21` [Example 120284], a half-maximal response (EC50) required 7870 nM and the “Fold Increase” value stood at 1.19.

With `Cn1ccc2cc(N3Cc4ccccc4C3=O)ccc21` [Example 120287], the EC50 turned out to be 158 nM and the “Fold Increase” value worked out at 1.433.

On to `Cn1ccc2cc(N3Cc4ccc(-c5ccccc5)cc4C3=O)ccc21` [Example 120288], for which the EC50 came to 408 nM and the “Fold Increase” value is given as 1.364.

Take `Cn1ccc2cc(N3Cc4c(Br)cccc4C3=O)ccc21` [Example 120289]: it took 1030 nM to reach a half-maximal effect (EC50) and the “Fold Increase” value was 1.39.

Turning to `Cn1ccc2ccc(N3Cc4c(Br)cccc4C3=O)cc21` [Example 120290], the EC50 was 609 nM and the “Fold Increase” value was 1.386.

Consider `COc1ccc2c(c1)C(=O)N(c1ccc3c(c1)ncn3C)C2` [Example 120291], for which the EC50 was 111 nM and the “Fold Increase” value came to 1.362.

For the compound `Cn1ccc2cc(N3Cc4cccc(N)c4C3=O)ccc21` [Example 120427], a half-maximal effect (EC50) was put at 294 nM and the “Fold Increase” value was determined as 1.606.

Consider `Cn1ccc2cc(N3Cc4cccc([N+](=O)[O-])c4C3=O)ccc21` [Example 120428], for which the 50% effective concentration (EC50) turned out to be 338 nM and the “Fold Increase” value was 1.262.

In the case of `Cn1ccc2ccc(N3Cc4cccc(N)c4C3=O)cc21` [Example 120429], a half-maximal effect (EC50) was put at 152 nM and the “Fold Increase” value was 1.745.

With `COCn1ccc2ccc(N3Cc4ccc(Br)cc4C3=O)cc21` [Example 120430], the EC50 was found to be 306 nM and the “Fold Increase” value came out at 1.374.
